The source made the active and inactive calls. No cut-off for these calls is given here.
Assays:
Cholinesterase [1] = biological target: T1, Cholinesterase (Equus caballus, UniProt P81908)
Description: Inhibition of equine serum BuChE by Ellman's method

[2] = Metal chelating activity assessed as compound-Cu2+ complex formation by UV spectrophotometric analysis
[3] = Metal chelating activity assessed as compound-Zn2+ complex formation by measuring new peak formation by fluorescence emission spectral analysis
[4] = Metal chelating activity assessed as compound-Fe3+ complex formation by measuring decrease in fluorescence intensity by fluorescence emission spectral analysis
[5] = biological target: Amyloid-beta precursor protein (Homo sapiens) (UniProt P05067); assay: Inhibition of amyloid beta (1 to 42) (unknown origin) self aggregation at 25 uM by Thioflavin T based fluorometric assay
Acetylcholinesterase = Acetylcholinesterase (Electrophorus electricus, UniProt O42275); assay: Inhibition of electric eel AChE by Ellman's method
[6] = Metal chelating activity assessed as compound-Cu2+ complex formation by fluorescence emission spectral analysis
[7] = Metal chelating activity assessed as Cu2+-complex formation by measuring inhibition of Cu2+ induced amyloid beta (1 to 42) aggregation at 25 uM by Thioflavin T based fluorometric assay
[8] = Antioxidant activity assessed as superoxide anion radical scavenging activity by measuring reduction in cathode current by cyclic voltammetry; assay type: functional
[9] = Antioxidant activity assessed as superoxide anion radical scavenging activity by measuring reduction in anode current by cyclic voltammetry; assay type: functional
[10] = Metal chelating activity assessed as compound-Zn2+ complex formation by UV spectrophotometric analysis
[11] = Metal chelating activity assessed as compound-Fe3+ complex formation by UV spectrophotometric analysis
[12] = biological target: Cholinesterase (Equus caballus) (UniProt P81908); assay: Mixed type inhibition of equine serum BuChE assessed as decrease in Vmax with increase in Km by Lineweaver-Burk plot analysis; assay type: cell-free
[13] = biological target: Cholinesterase (Equus caballus) (UniProt P81908); assay: (§1) Mixed type inhibition of equine serum BuChE by double reciprocal analysis; assay type: cell-free
Cholinesterase [14] = biological target: T1, Cholinesterase; assay: as §1; assay type: cell-free

T1 sequence (P81908 whole entry): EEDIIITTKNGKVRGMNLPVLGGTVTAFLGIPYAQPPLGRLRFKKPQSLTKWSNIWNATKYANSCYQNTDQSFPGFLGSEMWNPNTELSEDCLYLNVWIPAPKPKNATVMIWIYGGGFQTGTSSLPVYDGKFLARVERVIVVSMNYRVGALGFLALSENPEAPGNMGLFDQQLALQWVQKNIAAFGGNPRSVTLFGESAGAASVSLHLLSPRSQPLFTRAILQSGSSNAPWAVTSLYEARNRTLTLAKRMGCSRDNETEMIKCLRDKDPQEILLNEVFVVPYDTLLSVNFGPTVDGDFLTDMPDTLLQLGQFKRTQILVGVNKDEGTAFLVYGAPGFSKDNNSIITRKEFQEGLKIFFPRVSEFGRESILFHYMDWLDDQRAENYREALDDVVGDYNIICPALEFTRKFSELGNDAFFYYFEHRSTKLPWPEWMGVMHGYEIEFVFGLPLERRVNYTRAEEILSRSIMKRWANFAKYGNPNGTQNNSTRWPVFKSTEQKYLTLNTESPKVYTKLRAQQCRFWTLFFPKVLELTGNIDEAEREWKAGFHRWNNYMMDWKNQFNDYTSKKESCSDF
Sequence of Acetylcholinesterase (O42275 whole entry): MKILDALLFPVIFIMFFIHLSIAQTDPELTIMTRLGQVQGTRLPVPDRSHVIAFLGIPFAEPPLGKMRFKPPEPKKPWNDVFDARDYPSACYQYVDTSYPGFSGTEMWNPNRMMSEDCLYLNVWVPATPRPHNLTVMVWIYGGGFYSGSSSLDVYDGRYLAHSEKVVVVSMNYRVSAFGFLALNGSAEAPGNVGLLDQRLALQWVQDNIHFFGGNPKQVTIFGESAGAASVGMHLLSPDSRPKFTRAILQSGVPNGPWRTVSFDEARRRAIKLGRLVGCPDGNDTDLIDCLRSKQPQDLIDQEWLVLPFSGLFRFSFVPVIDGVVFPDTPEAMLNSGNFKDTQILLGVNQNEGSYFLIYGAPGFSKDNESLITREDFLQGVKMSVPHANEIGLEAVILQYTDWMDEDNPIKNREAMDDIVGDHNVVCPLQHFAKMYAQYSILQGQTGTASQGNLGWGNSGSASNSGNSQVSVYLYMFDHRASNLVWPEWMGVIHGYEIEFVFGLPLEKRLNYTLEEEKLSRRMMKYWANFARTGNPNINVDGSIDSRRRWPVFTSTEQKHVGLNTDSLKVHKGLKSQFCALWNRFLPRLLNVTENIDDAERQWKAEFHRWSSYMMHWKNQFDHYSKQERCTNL
Sequence of Amyloid-beta precursor protein (Homo sapiens) (P05067 whole entry): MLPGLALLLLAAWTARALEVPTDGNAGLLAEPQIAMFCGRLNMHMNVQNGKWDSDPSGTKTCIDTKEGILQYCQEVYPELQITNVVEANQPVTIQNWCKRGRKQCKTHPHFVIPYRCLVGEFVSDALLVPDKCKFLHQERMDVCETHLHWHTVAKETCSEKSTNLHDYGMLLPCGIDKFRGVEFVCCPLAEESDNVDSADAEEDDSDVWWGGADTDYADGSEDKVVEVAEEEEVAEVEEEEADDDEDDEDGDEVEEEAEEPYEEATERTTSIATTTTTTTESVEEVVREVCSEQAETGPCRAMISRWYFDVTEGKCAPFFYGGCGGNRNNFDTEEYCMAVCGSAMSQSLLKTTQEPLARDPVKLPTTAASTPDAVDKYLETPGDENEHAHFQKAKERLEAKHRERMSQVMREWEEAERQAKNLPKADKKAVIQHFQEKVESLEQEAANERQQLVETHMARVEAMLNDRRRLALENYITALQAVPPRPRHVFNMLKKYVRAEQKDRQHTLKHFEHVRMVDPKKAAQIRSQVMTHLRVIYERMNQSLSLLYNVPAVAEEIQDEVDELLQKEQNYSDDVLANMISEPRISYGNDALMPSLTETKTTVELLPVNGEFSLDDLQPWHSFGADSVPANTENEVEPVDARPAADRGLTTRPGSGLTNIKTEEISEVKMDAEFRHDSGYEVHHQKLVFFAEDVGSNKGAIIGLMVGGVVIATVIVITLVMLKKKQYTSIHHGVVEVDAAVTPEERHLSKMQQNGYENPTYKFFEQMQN
Sequence of Cholinesterase (Equus caballus) (P81908 whole entry): as the sequence (P81908 whole entry) above

O=C1CC(c2ccc(O)cc2)Oc2cc(OC(=O)N3CCOCC3)cc(O)c21 (centres undefined)
IC50 (Cholinesterase [1]): 13.7 µM | Activity [2]: Active | Activity [3]: Active | Activity [4]: Active | inhibition [5]: 62.3% | IC50 (Acetylcholinesterase): 12.9 µM | Activity [6]: inactive | inhibition [7]: 60.9%

O=C1C[C@@H](c2ccc(O)cc2)Oc2cc(O)cc(O)c21 [NARINGENIN]
Activity [8]: Active | IC50 (Cholinesterase [1]): > 100 µM | inhibition [5]: 44.9% | IC50 (Acetylcholinesterase): > 100 µM | Activity [9]: Active | inhibition [7]: 69.2%

COc1cc(/C=C/C(=O)CC(=O)/C=C/c2ccc(O)c(OC)c2)ccc1O
inhibition [7]: 73.3%

CCN(C)C(=O)Oc1cc(O)c2c(c1)OC(c1ccc(O)cc1)CC2=O (centres undefined)
IC50 (Cholinesterase [1]): 3.42 µM | Activity [10]: Active | Activity [2]: Active | Activity [3]: Active | Activity [4]: Active | inhibition [5]: 66.5% | IC50 (Acetylcholinesterase): 28.3 µM | Activity [6]: inactive | inhibition [7]: 65.5%

O=C1CC(c2ccc(O)cc2)Oc2cc(OC(=O)N3CCCCC3)cc(O)c21 (centres undefined)
Activity [8]: Active | IC50 (Cholinesterase [1]): 0.094 µM | Activity [10]: Active | Activity [2]: Active | Activity [11]: Active | Activity [3]: Active | Activity [4]: Active | inhibition [12]: Active | inhibition [5]: 36.1% | Ks [13]: 0.469 µM | Ki (Cholinesterase [14]): 1.6 µM | IC50 (Acetylcholinesterase): 62.5 µM | Activity [9]: Active | Activity [6]: inactive | inhibition [7]: 61.1%

CN(C)C(=O)Oc1ccc(C2CC(=O)c3c(O)cc(OC(=O)N(C)C)cc3O2)cc1 (centres undefined)
IC50 (Cholinesterase [1]): 12.2 µM | Activity [10]: Active | Activity [2]: Active | Activity [11]: Active | Activity [3]: Active | Activity [4]: Active | inhibition [5]: 62.4% | IC50 (Acetylcholinesterase): 23.9 µM | Activity [6]: inactive | inhibition [7]: 53.5%
